Measurements taken from PubChem BioAssay AID2060620 (Molecular Pharmacology Branch, DTP, NCI, 2025).
pIC50: −log10 of the molar value.

System: 328373-195-R-J1-PDC complex spheroids, viability % test/control
Assay: Anticancer human tumor 328373-195-R-J1-PDC patient-derived head and neck squamous carcinoma cell line growth inhibition [CLK]
Conditions: for pIC50: curve of first compound; for viability, T/C: stronger effect = lower value
Summary of the method: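 Multi-cell-type spheroids combined patient-derived tumor cells with HUVEC endothelial cells and human mesenchymal stem cells. Paired agents were dosed in half-log steps down from about clinical Cmax, or from 10 microM where Cmax was unknown.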

[1] = second compound 0.0316 µM, first compound 0.0316 µM
[2] = second compound 0.0316 µM, first compound 0.1 µM
[3] = second compound 0.0316 µM, first compound 0.316 µM
[4] = second compound 0.0316 µM, first compound 1 µM
[5] = second compound 0.0316 µM, first compound 3.16 µM
[6] = second compound 0.0316 µM, first compound 10 µM
[7] = second compound 0.1 µM, first compound 0.0316 µM
[8] = second compound 0.1 µM, first compound 0.1 µM
[9] = second compound 0.1 µM, first compound 0.316 µM
[10] = second compound 0.1 µM, first compound 1 µM
[11] = second compound 0.1 µM, first compound 3.16 µM
[12] = second compound 0.1 µM, first compound 10 µM
[13] = second compound 0.316 µM, first compound 0.0316 µM
[14] = second compound 0.316 µM, first compound 0.1 µM
[15] = second compound 0.316 µM, first compound 0.316 µM
[16] = second compound 0.316 µM, first compound 1 µM
[17] = second compound 0.316 µM, first compound 3.16 µM
[18] = second compound 0.316 µM, first compound 10 µM
[19] = second compound 1 µM, first compound 0.0316 µM
[20] = second compound 1 µM, first compound 0.1 µM
[21] = second compound 1 µM, first compound 0.316 µM
[22] = second compound 1 µM, first compound 1 µM
[23] = second compound 1 µM, first compound 3.16 µM
[24] = second compound 1 µM, first compound 10 µM
[25] = second compound 3.16 µM, first compound 0.0316 µM
[26] = second compound 3.16 µM, first compound 0.1 µM
[27] = second compound 3.16 µM, first compound 0.316 µM
[28] = second compound 3.16 µM, first compound 1 µM
[29] = second compound 3.16 µM, first compound 3.16 µM
[30] = second compound 3.16 µM, first compound 10 µM
[31] = second compound 10 µM, first compound 0.0316 µM
[32] = second compound 10 µM, first compound 0.1 µM
[33] = second compound 10 µM, first compound 0.316 µM
[34] = second compound 10 µM, first compound 1 µM
[35] = second compound 10 µM, first compound 3.16 µM
[36] = second compound 10 µM, first compound 10 µM
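Also: spheroids exposed to the agents for 7 days.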

**Q.** `C#Cc1c(F)ccc2cc(O)cc(-c3ncc4c(N5CC6CCC(C5)N6)nc(OCC56CCCN5CC(F)C6)nc4c3F)c12` (stereo unspecified) + CNC(=O)c1ccc(Nc2nc(OC3CCCC3)c3c(-c4ccc5nc(C)oc5c4)c[nH]c3n2)c(OC)c1 was tested. Which pIC50 (second compound 0.0316 µM) did it give?
**A.** 5.29

**Q.** And the pIC50 (second compound 0.1 µM)?
**A.** > 7.50

**Q.** And the pIC50 (second compound 0.316 µM)?
**A.** > 7.50

**Q.** And the pIC50 (second compound 1 µM)?
**A.** > 7.50

**Q.** And the pIC50 (second compound 3.16 µM)?
**A.** > 7.50

**Q.** What about the pIC50 (second compound 10 µM) of the same molecule?
**A.** > 7.50

**Q.** What about the viability, T/C [1] of the same molecule?
**A.** 68.5%

**Q.** What about the viability, T/C [2] of the same molecule?
**A.** 63.2%

**Q.** And the viability, T/C [3]?
**A.** 60.2%

**Q.** And the viability, T/C [4]?
**A.** 65%

**Q.** And the viability, T/C [5]?
**A.** 62.6%

**Q.** What about the viability, T/C [6] of the same molecule?
**A.** 32.6%

**Q.** And the viability, T/C [7]?
**A.** 11.3%

**Q.** And the viability, T/C [8]?
**A.** 10.5%

**Q.** What about the viability, T/C [9] of the same molecule?
**A.** 7.58%

**Q.** And the viability, T/C [10]?
**A.** 11.6%

**Q.** What about the viability, T/C [11] of the same molecule?
**A.** 9.36%

**Q.** And the viability, T/C [12]?
**A.** 7.63%

**Q.** What about the viability, T/C [13] of the same molecule?
**A.** 8.02%

**Q.** And the viability, T/C [14]?
**A.** 9.37%

**Q.** And the viability, T/C [15]?
**A.** 9.67%

**Q.** And the viability, T/C [16]?
**A.** 8.78%

**Q.** What about the viability, T/C [17] of the same molecule?
**A.** 7.32%

**Q.** And the viability, T/C [18]?
**A.** 5.64%

**Q.** And the viability, T/C [19]?
**A.** 10%

**Q.** What about the viability, T/C [20] of the same molecule?
**A.** 11.6%

**Q.** What about the viability, T/C [21] of the same molecule?
**A.** 8.24%

**Q.** What about the viability, T/C [22] of the same molecule?
**A.** 9.01%

**Q.** What about the viability, T/C [23] of the same molecule?
**A.** 8.47%

**Q.** And the viability, T/C [24]?
**A.** 5.54%

**Q.** And the viability, T/C [25]?
**A.** 9.2%

**Q.** And the viability, T/C [26]?
**A.** 8.8%

**Q.** What about the viability, T/C [27] of the same molecule?
**A.** 9.68%

**Q.** And the viability, T/C [28]?
**A.** 9.11%

**Q.** And the viability, T/C [29]?
**A.** 9.06%

**Q.** And the viability, T/C [30]?
**A.** 6.06%

**Q.** What about the viability, T/C [31] of the same molecule?
**A.** 10.7%

**Q.** And the viability, T/C [32]?
**A.** 11.8%

**Q.** And the viability, T/C [33]?
**A.** 10.1%

**Q.** What about the viability, T/C [34] of the same molecule?
**A.** 10.3%

**Q.** And the viability, T/C [35]?
**A.** 10.5%

**Q.** And the viability, T/C [36]?
**A.** 4.63%

**Q.** `C=C(F)C(=O)N1CCN(c2nc(OCC3CCCN3C)nc3c2CCN(c2cccc4cccc(Cl)c24)C3)CC1CC#N` (stereo unspecified) + CNC(=O)c1ccc(Nc2nc(OC3CCCC3)c3c(-c4ccc5nc(C)oc5c4)c[nH]c3n2)c(OC)c1 was tested. Which pIC50 (second compound 0.0316 µM) did it give?
**A.** 5.74

**Q.** And the pIC50 (second compound 0.1 µM)?
**A.** > 7.50

**Q.** And the pIC50 (second compound 0.316 µM)?
**A.** > 7.50

**Q.** What about the pIC50 (second compound 1 µM) of the same molecule?
**A.** > 7.50

**Q.** And the pIC50 (second compound 3.16 µM)?
**A.** > 7.50

**Q.** What about the pIC50 (second compound 10 µM) of the same molecule?
**A.** > 7.50

**Q.** And the viability, T/C [1]?
**A.** 55%

**Q.** And the viability, T/C [2]?
**A.** 57.6%

**Q.** What about the viability, T/C [3] of the same molecule?
**A.** 57%

**Q.** What about the viability, T/C [4] of the same molecule?
**A.** 57.2%

**Q.** And the viability, T/C [5]?
**A.** 43.8%

**Q.** What about the viability, T/C [6] of the same molecule?
**A.** 0.11%

**Q.** What about the viability, T/C [7] of the same molecule?
**A.** 11.2%

**Q.** And the viability, T/C [8]?
**A.** 9.34%

**Q.** What about the viability, T/C [9] of the same molecule?
**A.** 8.18%

**Q.** And the viability, T/C [10]?
**A.** 10.4%

**Q.** And the viability, T/C [11]?
**A.** 10.7%

**Q.** What about the viability, T/C [12] of the same molecule?
**A.** 0.09%

**Q.** What about the viability, T/C [13] of the same molecule?
**A.** 10.5%

**Q.** And the viability, T/C [14]?
**A.** 8.47%

**Q.** What about the viability, T/C [15] of the same molecule?
**A.** 10.6%

**Q.** What about the viability, T/C [16] of the same molecule?
**A.** 8.2%

**Q.** And the viability, T/C [17]?
**A.** 8.71%

**Q.** And the viability, T/C [18]?
**A.** 0.79%

**Q.** What about the viability, T/C [19] of the same molecule?
**A.** 8.55%

**Q.** What about the viability, T/C [20] of the same molecule?
**A.** 9.75%

**Q.** And the viability, T/C [21]?
**A.** 8.98%

**Q.** And the viability, T/C [22]?
**A.** 8.73%

**Q.** And the viability, T/C [23]?
**A.** 11.3%

**Q.** What about the viability, T/C [24] of the same molecule?
**A.** 0.08%

**Q.** What about the viability, T/C [25] of the same molecule?
**A.** 11.6%

**Q.** What about the viability, T/C [26] of the same molecule?
**A.** 10%

**Q.** What about the viability, T/C [27] of the same molecule?
**A.** 9.7%

**Q.** What about the viability, T/C [28] of the same molecule?
**A.** 10.9%

**Q.** What about the viability, T/C [29] of the same molecule?
**A.** 9.36%

**Q.** And the viability, T/C [30]?
**A.** 0.12%

**Q.** What about the viability, T/C [31] of the same molecule?
**A.** 11.1%

**Q.** What about the viability, T/C [32] of the same molecule?
**A.** 11.5%

**Q.** And the viability, T/C [33]?
**A.** 9.68%

**Q.** And the viability, T/C [34]?
**A.** 10.4%

**Q.** What about the viability, T/C [35] of the same molecule?
**A.** 11.6%

**Q.** What about the viability, T/C [36] of the same molecule?
**A.** 0.19%

**Q.** What does the source list for `C=CC(=O)N1CCN(c2nc(=O)n(-c3c(C)ccnc3C(C)C)c3nc(-c4c(O)cccc4F)c(F)cc23)C(C)C1` (stereo unspecified) + CNC(=O)c1ccc(Nc2nc(OC3CCCC3)c3c(-c4ccc5nc(C)oc5c4)c[nH]c3n2)c(OC)c1?
**A.** pIC50 (second compound 0.0316 µM): < 5.00; pIC50 (second compound 0.1 µM): > 7.50; pIC50 (second compound 0.316 µM): > 7.50; pIC50 (second compound 1 µM): > 7.50; pIC50 (second compound 3.16 µM): > 7.50; pIC50 (second compound 10 µM): > 7.50; viability, T/C [1]: 57.3%; viability, T/C [2]: 59.7%; viability, T/C [3]: 60.2%; viability, T/C [4]: 64.9%; viability, T/C [5]: 65.1%; viability, T/C [6]: 47.7%; viability, T/C [7]: 11.2%; viability, T/C [8]: 10.2%; viability, T/C [9]: 11.6%; viability, T/C [10]: 12.8%; viability, T/C [11]: 13.2%; viability, T/C [12]: 9.6%; viability, T/C [13]: 8.33%; viability, T/C [14]: 10.6%; viability, T/C [15]: 9.38%; viability, T/C [16]: 10.4%; viability, T/C [17]: 13.9%; viability, T/C [18]: 10.3%; viability, T/C [19]: 10.1%; viability, T/C [20]: 9.55%; viability, T/C [21]: 9.73%; viability, T/C [22]: 10.4%; viability, T/C [23]: 13.2%; viability, T/C [24]: 8.42%; viability, T/C [25]: 10.1%; viability, T/C [26]: 13.2%; viability, T/C [27]: 10.9%; viability, T/C [28]: 10.9%; viability, T/C [29]: 15.1%; viability, T/C [30]: 10.7%; viability, T/C [31]: 12.8%; viability, T/C [32]: 11.7%; viability, T/C [33]: 12.2%; viability, T/C [34]: 13.3%; viability, T/C [35]: 14.5%; viability, T/C [36]: 8.55%
